Experimental data as given in patent US11192891B2, “Diazaspiro ROCK inhibitors” (BRISTOL-MYERS SQUIBB COMPANY, priority 2017, dated 2021).

What follows are compounds tested against ROCK2 (Homo sapiens, UniProt O75116) (assay: ROCK kinase inhibition assay, FITC peptide substrate, LABCHIP 3000 readout). Settings: 5 μM ATP, 1.5 μM peptide substrate.
Sequence of ROCK2 (O75116 whole entry, species assumed): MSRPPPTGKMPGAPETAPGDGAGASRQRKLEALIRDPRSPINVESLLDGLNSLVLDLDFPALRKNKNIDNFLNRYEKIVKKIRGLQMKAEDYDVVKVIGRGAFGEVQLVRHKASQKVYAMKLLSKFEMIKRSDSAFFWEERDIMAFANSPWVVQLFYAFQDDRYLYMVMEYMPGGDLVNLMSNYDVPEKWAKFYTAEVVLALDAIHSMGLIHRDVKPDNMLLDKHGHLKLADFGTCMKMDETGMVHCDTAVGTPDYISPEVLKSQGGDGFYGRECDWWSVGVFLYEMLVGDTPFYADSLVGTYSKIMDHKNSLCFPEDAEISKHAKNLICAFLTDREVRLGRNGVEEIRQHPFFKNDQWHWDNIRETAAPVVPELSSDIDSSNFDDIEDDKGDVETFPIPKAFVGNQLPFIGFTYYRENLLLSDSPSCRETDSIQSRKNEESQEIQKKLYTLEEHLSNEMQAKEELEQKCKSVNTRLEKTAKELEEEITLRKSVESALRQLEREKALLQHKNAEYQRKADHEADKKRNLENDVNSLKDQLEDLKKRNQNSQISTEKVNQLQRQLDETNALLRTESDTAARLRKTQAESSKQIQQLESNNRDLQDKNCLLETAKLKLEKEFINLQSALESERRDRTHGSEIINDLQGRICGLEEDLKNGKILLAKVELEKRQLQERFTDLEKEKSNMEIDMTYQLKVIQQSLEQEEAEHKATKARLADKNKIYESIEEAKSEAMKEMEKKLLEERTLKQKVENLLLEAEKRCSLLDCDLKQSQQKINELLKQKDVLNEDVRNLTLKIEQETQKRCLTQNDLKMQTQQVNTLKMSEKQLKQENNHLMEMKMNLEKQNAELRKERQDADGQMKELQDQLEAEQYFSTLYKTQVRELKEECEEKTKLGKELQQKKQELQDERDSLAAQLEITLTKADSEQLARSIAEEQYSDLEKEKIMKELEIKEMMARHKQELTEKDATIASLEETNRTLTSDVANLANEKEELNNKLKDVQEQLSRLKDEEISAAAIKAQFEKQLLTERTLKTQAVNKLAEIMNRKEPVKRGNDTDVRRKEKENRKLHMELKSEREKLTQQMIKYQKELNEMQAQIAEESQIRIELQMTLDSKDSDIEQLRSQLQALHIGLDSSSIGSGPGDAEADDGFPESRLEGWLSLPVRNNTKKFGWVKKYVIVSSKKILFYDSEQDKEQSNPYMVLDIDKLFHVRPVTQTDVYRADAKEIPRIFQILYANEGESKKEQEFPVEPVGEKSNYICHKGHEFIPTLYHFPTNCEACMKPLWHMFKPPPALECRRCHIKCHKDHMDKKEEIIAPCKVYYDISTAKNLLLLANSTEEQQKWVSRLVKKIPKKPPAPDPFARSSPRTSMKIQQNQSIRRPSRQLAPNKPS
Format: biochemical
How it was run: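 Rho kinase variants started the reaction with compound present (DMSO <2%); after incubation, EDTA stop, and phosphorylated and non-phosphorylated peptide separated by microfluidic electrophoresis. Dose-response format, inhibition calculated at each concentration.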
For COc1cc(N2CCC3(CCN(C(=O)c4ccc(N5CCCOC5=O)cc4)CC3)C2=O)ccc1-c1cn[nH]c1 [Example 137, 2-[3-methoxy-4-(1H-pyrazol-4-yl)phenyl]-8-[4-(2-oxo-1,3-oxazinan-3-yl)benzoyl]-2,8-diazaspiro[4.5]decan-1-one], the IC50 was 7.1 nM. With COc1cccc(C(=O)N2CCC3(CCN(c4ccc(-c5cn[nH]c5)cc4)C3=O)C2)c1 (centres unmarked) [Example 44, 7-(3-methoxybenzoyl)-2-[4-(1H-pyrazol-4-yl)phenyl]-2,7-diazaspiro[4.4]nonan-1-one] the IC50 was 444 nM. COc1cc(N2CCC3(CCN(C(=O)c4ccc5oc(C)nc5c4)CC3)C2=O)ccc1-c1cn[nH]c1 [Example 119, 2-[3-methoxy-4-(1H-pyrazol-4-yl)phenyl]-8-(2-methyl-1,3-benzoxazole-5-carbonyl)-2,8-diazaspiro[4.5]decan-1-one] was tested, and the IC50 was 70 nM. Compound CN1CCN(c2ccc(C(=O)N3CCC4(CC3)CCN(c3ccc(-c5ccnc(N)c5)cc3)C4=O)cc2)CC1 [Example 36, 2-[4-(2-aminopyridin-4-yl)phenyl]-8-[4-(4-methylpiperazin-1-yl)benzoyl]-2,8-diazaspiro[4.5]decan-1-one] has an IC50 of 2 nM. COc1cc(N2CCC3(CCN(C(=O)c4ccc(N5CCN(Cc6ccc(N(C)C)cc6)CC5)cc4)CC3)C2=O)ccc1-c1cn[nH]c1 [Example 245, 8-[4-(4-{[4-(dimethylamino)phenyl]methyl}piperazin-1-yl)benzoyl]-2-[3-methoxy-4-(1H-pyrazol-4-yl)phenyl]-2,8-diazaspiro[4.5]decan-1-one] gave an IC50 of 0.1 nM. In the case of COc1cc(N2CCC3(CCN(C(=O)c4ccc(Oc5ccccc5)cc4)CC3)C2=O)ccc1-c1cn[nH]c1 [Example 60, 2-[3-methoxy-4-(1H-pyrazol-4-yl)phenyl]-8-(4-phenoxybenzoyl)-2,8-diazapsiro[4.5]decan-1-one], the IC50 is reported as 54 nM. COc1cc(N2CCC3(CCN(C(=O)c4ccc(N5CCCC5)cn4)CC3)C2=O)ccc1-c1cn[nH]c1 [Example 54, 2-[3-methoxy-4-(1H-pyrazol-4-yl)phenyl]-8-[5-(pyrrolidin-1-yl)pyridine-2-carbonyl]-2,8-diazaspiro[4.5]decan-1-one] showed an IC50 of 2.1 nM. Compound COc1cc(N2CCC3(CCN(C(=O)c4ccc(N5CCN(CC6CCCC6)CC5)cc4)CC3)C2=O)ccc1-c1cn[nH]c1 [Example 230, 8-{4-[4-(cyclopentylmethyl)piperazin-1-yl]benzoyl}-2-[3-methoxy-4-(1H-pyrazol-4-yl)phenyl]-2,8-diazaspiro[4.5]decan-1-one] has an IC50 of 2.2 nM. Compound COc1cc(N2CCC3(CCN(C(=O)c4ccc(Cl)cc4)CC3)C2=O)ccc1-c1cn[nH]c1 [Example 18, 8-(4-Chlorobenzoyl)-2-[3-methoxy-4-(1H-pyrazol-4-yl)phenyl]-2,8-diazaspiro[4.5]decan-1-one] has an IC50 of 62 nM. Compound COc1cc(N2CCC3(CCN(C(=O)c4ccc(NC(C)=O)cc4)CC3)C2=O)ccc1-c1cn[nH]c1 [Example 88, N-(4-{2-[3-methoxy-4-(1H-pyrazol-4-yl)phenyl]-1-oxo-2,8-diazaspiro[4.5]decane-8-carbonyl}phenyl)acetamide] has an IC50 of 73 nM. Compound COc1ccc(C(=O)N2CCC3(CC2)CCN(c2ccc(-c4cn[nH]c4)c(OC)c2)C3=O)c(OC)n1 [Example 80, 8-(2,6-dimethoxypyridine-3-carbonyl)-2-[3-methoxy-4-(1H-pyrazol-4-yl)phenyl]-2,8-diazaspiro[4.5]decan-1-one] has an IC50 of 99 nM. COc1cc(N2CCC3(CCN(C(=O)c4cccc(Oc5ccccc5)c4)CC3)C2=O)ccc1-c1cn[nH]c1 [Example 57, 2-[3-methoxy-4-(1H-pyrazol-4-yl)phenyl]-8-(3-phenoxybenzoyl)-2,8-diazaspiro[4.5]decan-1-one] gave an IC50 of 118 nM. COc1ccc(C(=O)N2CCC3(CC2)CCN(c2ccc(-c4cn[nH]c4)c(OC)c2)C3=O)cc1 [Example 13, 2-[3-methoxy-4-(1H-pyrazol-4-yl)phenyl]-8-(4-methoxybenzoyl)-2,8-diazaspiro[4.5]decan-1-one] gave an IC50 of 8 nM. With COc1ccc(-c2cc(C(=O)N3CCC4(CC3)CCN(c3ccc(-c5cn[nH]c5)c(OC)c3)C4=O)on2)cc1 [Example 113, 2-[3-methoxy-4-(1H-pyrazol-4-yl)phenyl]-8-[3-(4-methoxyphenyl)-1,2-oxazole-5-carbonyl]-2,8-diazaspiro[4.5]decan-1-one] the IC50 was 17 nM. COc1ccc(C(=O)N2CCC3(CC2)CCN(c2ccc(-c4cn[nH]c4)c(OC)c2)C3=O)c(OCc2ccccc2)c1 [Example 184, 8-[2-(benzyloxy)-4-methoxybenzoyl]-2-[3-methoxy-4-(1H-pyrazol-4-yl)phenyl]-2,8-diazaspiro[4.5]decan-1-one] was tested, and the IC50 was 12 nM. COc1cc(N2CCC3(CCN(C(=O)c4ccco4)CC3)C2=O)ccc1-c1cn[nH]c1 [Example 63, 8-(furan-2-carbonyl)-2-[3-methoxy-4-(1H-pyrazol-4-yl)phenyl]-2,8-diazaspiro[4.5]decan-1-one] showed an IC50 of 1690 nM. COc1cc(N2CCC3(CCN(C(=O)c4ccc(N5CCN(CC6CCOC6)CC5)cc4)CC3)C2=O)ccc1-c1cn[nH]c1 (centres unmarked) [Example 246, 2-[3-methoxy-4-(1H-pyrazol-4-yl)phenyl]-8-(4-{4-[(oxolan-3-yl)methyl]piperazin-1-yl}benzoyl)-2,8-diazaspiro[4.5]decan-1-one] gave an IC50 of 0.7 nM. For COc1cc(N2CCC3(CCN(C(=O)c4cc5ccccc5o4)CC3)C2=O)ccc1-c1cn[nH]c1 [Example 70, 8-(1-benzofuran-2-carbonyl)-2-[3-methoxy-4-(1H-pyrazol-4-yl)phenyl]-2,8-diazaspiro[4.5]decan-1-one], the IC50 was 529 nM. COc1cc(N2CCC3(CCN(C(=O)c4cnccn4)CC3)C2=O)ccc1-c1cn[nH]c1 [Example 71, 2-[3-methoxy-4-(1H-pyrazol-4-yl)phenyl]-8-(pyrazine-2-carbonyl)-2,8-diazaspiro[4.5]decan-1-one] was tested, and the IC50 was 289 nM. Work on COc1cc(N2CCC3(CCN(C(=O)c4cc(=O)n5nnnc5[nH]4)CC3)C2=O)ccc1-c1cn[nH]c1 [Example 129, 2-[3-methoxy-4-(1H-pyrazol-4-yl)phenyl]-8-{7-oxo-4H,7H-[1,2,3,4]tetrazolo[1,5-a]pyrimidine-5-carbonyl}-2,8-diazaspiro[4.5]decan-1-one] yielded an IC50 of 292 nM. With COc1cc(N2CCC3(CCN(C(=O)c4ccc(N5CCN(Cc6cccnc6)CC5)cc4)CC3)C2=O)ccc1-c1cn[nH]c1 [Example 243, 2-[3-methoxy-4-(1H-pyrazol-4-yl)phenyl]-8-(4-{4-[(pyridin-3-yl)methyl]piperazin-1-yl}benzoyl)-2,8-diazaspiro[4.5]decan-1-one] the IC50 was 1 nM. Work on COc1cc(N2CCC3(CCN(C(=O)c4ccc5c(c4)ncn5C)CC3)C2=O)ccc1-c1cn[nH]c1 [Example 164, 2-[3-methoxy-4-(1H-pyrazol-4-yl)phenyl]-8-(1-methyl-1H-1,3-benzodiazole-5-carbonyl)-2,8-diazaspiro[4.5]decan-1-one] yielded an IC50 of 2.6 nM. With COc1cc(N2CCC3(CCN(C(=O)c4cnc(Cl)cn4)CC3)C2=O)ccc1-c1cn[nH]c1 [Example 115, 8-(5-chloropyrazine-2-carbonyl)-2-[3-methoxy-4-(1H-pyrazol-4-yl)phenyl]-2,8-diazaspiro[4.5]decan-1-one] the IC50 was 200 nM. Compound CN1CCN(c2ccc(C(=O)N3CCC4(CC3)CCN(c3ccc(-c5ccc6nn[nH]c6c5)cc3)C4=O)cc2)CC1 [Example 38, 2-[4-(1H-1,2,3-benzotriazol-6-yl)phenyl]-8-[4-(4-methylpiperazin-1-yl)benzoyl]-2,8-diazaspiro[4.5]decan-1-one] has an IC50 of 116 nM. COc1cc(N2CCC3(CCN(C(=O)c4ccc(Br)cc4)CC3)C2=O)ccc1-c1cn[nH]c1 [Example 195, 8-(4-bromobenzoyl)-2-[3-methoxy-4-(1H-pyrazol-4-yl)phenyl]-2,8-diazaspiro[4.5]decan-1-one] was tested, and the IC50 was 33 nM. COc1ccc(C(=O)N2CCC3(CC2)CCN(c2ccc(-c4cn[nH]c4)c(OC)c2)C3=O)cc1F [Example 14, 8-(3-fluoro-4-methoxybenzoyl)-2-[3-methoxy-4-(1H-pyrazol-4-yl)phenyl]-2,8-diazaspiro[4.5]decan-1-one] gave an IC50 of 8 nM. Compound COc1cc(N2CCC3(CCN(C(=O)c4ccc(Cl)cn4)CC3)C2=O)ccc1-c1cn[nH]c1 [Example 123, 8-(5-chloropyridine-2-carbonyl)-2-[3-methoxy-4-(1H-pyrazol-4-yl)phenyl]-2,8-diazaspiro[4.5]decan-1-one] has an IC50 of 65 nM. COc1ccc(C(=O)N2CCC3(CC2)CCN(c2ccc(-c4cn[nH]c4)c(OC)c2)C3=O)cc1Cl [Example 22, 8-(3-chloro-4-methoxybenzoyl)-2-[3-methoxy-4-(1H-pyrazol-4-yl)phenyl]-2,8-diazaspiro[4.5]decan-1-one] showed an IC50 of 6 nM. Work on COc1cc(N2CCC3(CCN(C(=O)C4CCN(S(C)(=O)=O)CC4)CC3)C2=O)ccc1-c1cn[nH]c1 [Example 154, 8-(1-methanesulfonylpiperidine-4-carbonyl)-2-[3-methoxy-4-(1H-pyrazol-4-yl)phenyl]-2,8-diazaspiro[4.5]decan-1-one] yielded an IC50 of 2000 nM. COc1cc(N2CCC3(CCN(C(=O)c4ccc(N5CCN(CCC(C)(C)C)CC5)cc4)CC3)C2=O)ccc1-c1cn[nH]c1 [Example 231, 8-{4-[4-(3,3-dimethylbutyl)piperazin-1-yl]benzoyl}-2-[3-methoxy-4-(1H-pyrazol-4-yl)phenyl]-2,8-diazaspiro[4.5]decan-1-one] showed an IC50 of 2.2 nM. With COc1cc(N2CCC3(CCN(S(=O)(=O)c4ccc5[nH]c(=O)[nH]c(=O)c5c4)CC3)C2=O)ccc1-c1cn[nH]c1 [Example 209, 6-({2-[3-methoxy-4-(1H-pyrazol-4-yl)phenyl]-1-oxo-2,8-diazaspiro[4.5]decan-8-yl}sulfonyl)-1,2,3,4-tetrahydroquinazoline-2,4-dione] the IC50 was 410 nM. Work on COc1cc(N2CCC3(CCN(C(=O)c4ccc(N5CCN(Cc6cnc7ccccc7n6)CC5)cc4)CC3)C2=O)ccc1-c1cn[nH]c1 [Example 219, 2-[3-methoxy-4-(1H-pyrazol-4-yl)phenyl]-8-(4-{4-[(quinoxalin-2-yl)methyl]piperazin-1-yl}benzoyl)-2,8-diazaspiro[4.5]decan-1-one] yielded an IC50 of 1.9 nM.
